Experimental data taken from ChEMBL document CHEMBL5620423, “Highly-tumor-targeted PAD4 inhibitors with PBA modification inhibit tumors in vivo by specifically inhibiting the PAD4-H3cit-NETs pathway in neutrophils” (Eur J Med Chem, 2023).

Key:
4T1 = experiment: Cytotoxicity against mouse 4T1 cells assessed as reduction in cell viability measured after 48 hrs by MTT assay; conditions: 4T1, 48 h
Sarcoma-180 [1] = experiment: Antitumor activity against Sarcoma-180 mouse model assessed as inhibition of tumor growth at 10 umol/kg; format: functional
Sarcoma-180 [2] = experiment: Antitumor activity against Sarcoma-180 mouse model assessed as tumor weight at 10 umol/kg (reference value: 1.65 +/-0.2 gms); format: functional; conditions: dose 10 µmol/kg
Sarcoma-180 [3] = experiment: Antitumor activity against Sarcoma-180 mouse model assessed as tumor weight at 2 umol/kg (reference value: 1.65 +/-0.2 gms); format: functional; conditions: dose 2 µmol/kg
Sarcoma-180 [4] = experiment: Antitumor activity against Sarcoma-180 mouse model assessed as inhibition of tumor growth at 2 umol/kg; format: functional

Structure (SMILES) | IC50 (4T1) [µM] | inhibition in vivo at 10 µmol/kg (Sarcoma-180 [1]) [%] | Activity (Sarcoma-180 [2]) [g] | Activity (Sarcoma-180 [3]) [g] | inhibition in vivo at 2 µmol/kg (Sarcoma-180 [4]) [%]
N=C(CCl)NCCC[C@H](NC(=O)c1cc([N+](=O)[O-])c2nonc2c1)C(=O)NCc1ccc(B(O)O)cc1 | > 100 | 47.4 | 0.87 |  | 
N=C(CCl)NCCC[C@H](NC(=O)c1cc(B(O)O)cc([N+](=O)[O-])c1)C(=O)NCc1ccccc1 | > 100 | 27.6 | 1.19 |  | 
COc1cccc2c1C(=O)c1c(O)c3c(c(O)c1C2=O)C[C@@](O)(C(=O)CO)C[C@@H]3O[C@H]1C[C@H](N)[C@H](O)[C@H](C)O1 [DOXORUBICIN] | 1.63 |  |  | 0.94 | 42.7
N=C(CCl)NCCC[C@H](NC(=O)c1ccccc1B(O)O)C(=O)NCc1ccccc1 | > 100 | 39.2 | 1 |  | 
N=C(CCl)NCCC[C@H](NC(=O)c1cccc(B(O)O)c1F)C(=O)NCc1ccccc1 | > 100 | 43.7 | 0.93 |  | 
N=C(CCl)NCCC[C@H](NC(=O)c1cccc(B(O)O)c1)C(=O)NCc1ccccc1 | > 100 | 36.7 | 1.04 |  | 
N=C(CCl)NCCC[C@H](NC(=O)c1ccc(F)c(B(O)O)c1)C(=O)NCc1ccccc1 | > 100 | 37.5 | 1.03 |  | 
